# Assay results taken from PMC10331583, “Control of fibrosis with enhanced safety via asymmetric inhibition of prolyl‐tRNA synthetase 1” (EMBO Molecular Medicine, 2023).
# Several values for one entry are separate records, joined by “and”; a condition that tells them apart may be missing. Identical values can stand only once.
# Columns and labels:
# PARS1 WT = biological target: T1, PARS1 WT (Homo sapiens, UniProt P07814); assay: Microscale thermophoresis (MST), PARS1 WT; type: binding; settings: for Fraction bound: single replicates
# T1 construct: His‐PARS1 (1001–1,512 aa); made in house; host or cells: Escherichia coli
# T1 sequence (P07814 1001-1512 limits assumed): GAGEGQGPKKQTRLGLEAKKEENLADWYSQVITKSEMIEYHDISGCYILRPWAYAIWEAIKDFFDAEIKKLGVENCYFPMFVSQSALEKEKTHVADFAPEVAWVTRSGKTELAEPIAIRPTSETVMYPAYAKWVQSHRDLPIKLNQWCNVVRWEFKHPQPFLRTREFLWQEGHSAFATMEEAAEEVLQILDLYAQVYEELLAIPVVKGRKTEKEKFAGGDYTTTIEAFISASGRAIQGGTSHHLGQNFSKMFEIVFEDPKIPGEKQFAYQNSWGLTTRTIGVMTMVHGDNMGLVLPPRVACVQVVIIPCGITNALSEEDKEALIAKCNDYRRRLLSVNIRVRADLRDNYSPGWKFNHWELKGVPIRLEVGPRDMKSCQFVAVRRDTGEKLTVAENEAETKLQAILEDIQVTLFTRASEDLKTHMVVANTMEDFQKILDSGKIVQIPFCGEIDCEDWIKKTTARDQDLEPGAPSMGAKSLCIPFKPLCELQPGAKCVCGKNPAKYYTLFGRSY
# [1] = Pharmacokinetic study (plasma, LC-MS/MS); type: in vivo, C57BL/6 male mice; settings: 3, 10 and 30 mg/kg, single dose, intravenous and oral
# Experimental: All experiments were performed according to the guidelines on the Institutional Animal Care and Use Committee of QuBEST BIO (QBIACUC‐A21112). Seven‐week‐old C57BL/6 male mice were purchased from Samtako (Osan, South Korea) and fed with regular chow and water ad libitum for 1 week before the experiments. Nine C57BL/6 mice in each group received three single ascending doses (3, 10, and 30 mg/kg) of DWN12088 formulated in normal saline intravenously and orally in fasted conditions. Post‐dosing serial blood samples were obtained using eye bleeding into heparinized capillary tubes with composite sampling (three mice per time point) at predetermined time points. The plasma was separated from the whole blood by centrifugation at 15,000 g for 2 min at 4°C, and then the proteins were precipitated using acetonitrile containing a deuterated‐labeled DWN12088 as an internal standard (IS).
# The amount of DWN12088 in mouse plasma was measured by the AB Sciex ExionLC HPLC system connected to an AB Sciex 6500+ Qtrap mass spectrometer equipped with an electrospray ionization (ESI) source (AB Sciex LLC, Framingham, MA, USA). […] The gradient elution program was set as follows: 0–1 min, 10% B; 1.0–1.5 min, 10–95% B; 1.5–3.6 min, 95% B; 4.0–6.0 min, 10% B. Multiple reaction monitoring (MRM) was selected for the quantification of DWN12088 and IS in positive ion mode. […]
# [2] = Cytotoxicity assay in cells stably expressing EV; settings: human; for activity at 72 h, 100 µM: 100000 nM; for activity at 72 h, 300 µM: 300000 nM
# [3] = test system: WI‐26 VA4 cells stably expressing EV (empty vector); assay: Cytotoxicity assay in cells stably expressing EV; settings: WI-26 VA4 EV
# [4] = Cytotoxicity, % of control (single replicates, Experiment #1-#4), WI-26 VA4 EV
# [5] = Cytotoxicity, % of control, average, WI-26 VA4 EV
smiles,measurement,setting,value
O[C@H]1CCCN[C@@H]1CCCn1cnc2c(Cl)c(Cl)ccc21 [DWN12088],"Fraction bound, average",PARS1 WT; Dose 30.5176 nM,-0.2054
same,Fraction bound,PARS1 WT; Dose 30.5176 nM,-0.1847 and -0.2552 and -0.1762
same,"Fraction bound, average",PARS1 WT; Dose 61.0352 nM,-0.1331
same,Fraction bound,PARS1 WT; Dose 61.0352 nM,-0.1271 and -0.1077 and -0.1644
same,"Fraction bound, average",PARS1 WT; Dose 122.07 nM,-0.0578
same,Fraction bound,PARS1 WT; Dose 122.07 nM,0.0166 and -0.0399 and -0.1500
same,"Fraction bound, average",PARS1 WT; Dose 244.141 nM,0.0543
same,Fraction bound,PARS1 WT; Dose 244.141 nM,-0.0356 and 0.0851 and 0.1134
same,"Fraction bound, average",PARS1 WT; Dose 488.281 nM,-0.0068
same,Fraction bound,PARS1 WT; Dose 488.281 nM,0.0147 and -0.0499 and 0.0148
same,"Fraction bound, average",PARS1 WT; Dose 976.562 nM,0.1887
same,Fraction bound,PARS1 WT; Dose 976.562 nM,0.1745 and 0.1271 and 0.2645
same,"Fraction bound, average",PARS1 WT; Dose 1953.12 nM,0.3166
same,Fraction bound,PARS1 WT; Dose 1953.12 nM,0.2796 and 0.3408 and 0.3294
same,"Fraction bound, average",PARS1 WT; Dose 3906.25 nM,0.1823
same,Fraction bound,PARS1 WT; Dose 3906.25 nM,0.1409 and 0.1539 and 0.2519
same,"Fraction bound, average",PARS1 WT; Dose 7812.5 nM,0.3895
same,Fraction bound,PARS1 WT; Dose 7812.5 nM,0.3262 and 0.4199 and 0.4224
same,"Fraction bound, average",PARS1 WT; Dose 15625 nM,0.4633
same,Fraction bound,PARS1 WT; Dose 15625 nM,0.4748 and 0.4733 and 0.4418
same,"Fraction bound, average",PARS1 WT; Dose 31250 nM,0.5523
same,Fraction bound,PARS1 WT; Dose 31250 nM,0.4690 and 0.5423 and 0.6454
same,"Fraction bound, average",PARS1 WT; Dose 62500 nM,0.5522
same,Fraction bound,PARS1 WT; Dose 62500 nM,0.5673 and 0.5892 and 0.5000
same,"Fraction bound, average",PARS1 WT; Dose 125000 nM,0.7606
same,Fraction bound,PARS1 WT; Dose 125000 nM,0.7942 and 0.7665 and 0.7210
same,"Fraction bound, average",PARS1 WT; Dose 250000 nM,0.9107
same,Fraction bound,PARS1 WT; Dose 250000 nM,0.9397 and 0.8612 and 0.9313
same,"Fraction bound, average",PARS1 WT; Dose 500000 nM,1.0322
same,Fraction bound,PARS1 WT; Dose 500000 nM,1.1218 and 1.1050 and 0.8698
same,"Fraction bound, average",PARS1 WT; Dose 1000000 nM,1.1170
same,Fraction bound,PARS1 WT; Dose 1000000 nM,1.1447 and 1.1049 and 1.1015
same,Kd,"PARS1 WT; Kd (Fit Results), His-PARS1 WT, doses of the sheet in nM",20500 nM
same,Kd,"PARS1 WT; Kd, MST, in the presence of ATP",20000 nM
same,Kd,"PARS1 WT; Kd, MST, in the presence of proline 30 μM",79000 nM
same,Kd,"PARS1 WT; Kd, MST, in the presence of proline 120 μM",108000 nM
same,Kd,"PARS1 WT; Kd, WT, 5 mM ATP, mean ± SD, unit inferred",20500 ± 8580 nM
same,plasma concentrations,[1],higher at 30 mg/kg
same,CC50 at 72 h,[2],24 µM
same,IC50 at 72 h,[2],24 µM
same,"activity at 72 h, 100 µM",[2]; [4],29.1%
same,"activity at 72 h, 300 µM",[2]; [4],2.25%
same,"activity at 72 h, 0.01 µM","[2]; Cytotoxicity, % of control, average, WI-26 VA4 EV, 10 nM",131%
same,"activity at 72 h, 0.03 µM","[2]; Cytotoxicity, % of control, average, WI-26 VA4 EV, 30 nM",120%
same,"activity at 72 h, 0.1 µM","[2]; Cytotoxicity, % of control, average, WI-26 VA4 EV, 100 nM",127%
same,"activity at 72 h, 0.3 µM","[2]; Cytotoxicity, % of control, average, WI-26 VA4 EV, 300 nM",125%
same,"activity at 72 h, 1 µM","[2]; Cytotoxicity, % of control, average, WI-26 VA4 EV, 1000 nM",118%
same,"activity at 72 h, 3 µM","[2]; Cytotoxicity, % of control, average, WI-26 VA4 EV, 3000 nM",105%
same,"activity at 72 h, 10 µM","[2]; Cytotoxicity, % of control, average, WI-26 VA4 EV, 10000 nM",108%
same,"activity at 72 h, 30 µM","[2]; Cytotoxicity, % of control, average, WI-26 VA4 EV, 30000 nM",42.2%
same,"activity at 72 h, 100 µM",[2]; [5],25.1%
same,"activity at 72 h, 300 µM",[2]; [5],1.78%
same,"activity at 72 h, 1000 µM","[2]; Cytotoxicity, % of control, average, WI-26 VA4 EV, 1000000 nM",-0.23%
same,"Cytotoxicity, % of control (single replicates, Experiment #1-#4)","[3]; 10 nM, 0.01 µM",181.59 % of control and 174.53 % of control and 155.63 % of control and 131.53 % of control and 90.90 % of control and 98.37 % of control and 100.27 % of control and 114.43 % of control
same,"Cytotoxicity, % of control (single replicates, Experiment #1-#4)","[3]; 30 nM, 0.03 µM",144.67 % of control and 129.26 % of control and 139.92 % of control and 145.06 % of control and 96.12 % of control and 96.09 % of control and 105.17 % of control and 102.77 % of control
same,"Cytotoxicity, % of control (single replicates, Experiment #1-#4)","[3]; 100 nM, 0.1 µM",147.51 % of control and 118.70 % of control and 139.92 % of control and 137.75 % of control and 115.49 % of control and 112.19 % of control and 121.53 % of control and 122.89 % of control
same,"Cytotoxicity, % of control (single replicates, Experiment #1-#4)","[3]; 300 nM, 0.3 µM",145.14 % of control and 129.72 % of control and 157.05 % of control and 115.90 % of control and 103.62 % of control and 109.27 % of control and 123.14 % of control and 114.81 % of control
same,"Cytotoxicity, % of control (single replicates, Experiment #1-#4)","[3]; 1000 nM, 1 µM",147.27 % of control and 102.27 % of control and 132.28 % of control and 145.77 % of control and 98.60 % of control and 107.79 % of control and 107.19 % of control and 105.61 % of control
same,"Cytotoxicity, % of control (single replicates, Experiment #1-#4)","[3]; 3000 nM, 3 µM",108.37 % of control and 94.06 % of control and 109.81 % of control and 125.38 % of control and 98.33 % of control and 90.23 % of control and 106.43 % of control and 103.83 % of control
same,"Cytotoxicity, % of control (single replicates, Experiment #1-#4)","[3]; 10000 nM, 10 µM",112.55 % of control and 107.77 % of control and 118.32 % of control and 138.37 % of control and 93.86 % of control and 92.69 % of control and 99.78 % of control and 101.69 % of control
same,"Cytotoxicity, % of control (single replicates, Experiment #1-#4)","[3]; 30000 nM, 30 µM",48.06 % of control and 41.00 % of control and 64.15 % of control and 50.51 % of control and 27.36 % of control and 27.48 % of control and 37.20 % of control and 42.21 % of control
same,"Cytotoxicity, % of control (single replicates, Experiment #1-#4)","[3]; 100000 nM, 100 µM",28.49 % of control and 29.03 % of control and 30.62 % of control and 22.10 % of control and 18.35 % of control and 21.38 % of control and 22.01 % of control
same,"Cytotoxicity, % of control (single replicates, Experiment #1-#4)","[3]; 300000 nM, 300 µM",1.70 % of control and 1.82 % of control and 1.26 % of control and 1.75 % of control and 1.60 % of control and 1.89 % of control and 2.00 % of control
same,"Cytotoxicity, % of control (single replicates, Experiment #1-#4)","[3]; 1000000 nM, 1000 µM",0.17 % of control and -0.17 % of control and 0.30 % of control and -0.30 % of control (2×) and -0.44 % of control (2×) and -0.63 % of control
same,Cytotoxicity HillSlope (best-fit value),"[3]; log(inhibitor) vs. response, variable slope (four parameters)",-1.361
same,Cytotoxicity LogIC50 (best-fit value),"[3]; log(inhibitor) vs. response, variable slope (four parameters), concentration in nM",4.38
